Experimental findings from BindingDB's records for doi:10.1021/jm031121n (Novo Nordisk, 2004) are described below.

Target in the first test: not listed separately
Nature of the test: Inhibitory activity against rabbit muscle glycogen phosphorylase a in the absence of AMP.
As to `CCN1C(C)=C(C(=O)OC(C)C)[C@@H](c2ccccc2)C(C(=O)O)=C1C(=O)O` [(S)-1-Ethyl-6-methyl-4-phenyl-1,4-dihydro-pyridine-2,3,5-tricarboxylic acid 5-isopropyl ester], the Ki was 11 nM.

The target of another test is Glycogen phosphorylase, muscle form (Oryctolagus cuniculus) (UniProt P00489). In words: Inhibitory activity against rabbit Muscle glycogen phosphorylase b.
Chain of Glycogen phosphorylase, muscle form (Oryctolagus cuniculus) (P00489 whole entry, looked up): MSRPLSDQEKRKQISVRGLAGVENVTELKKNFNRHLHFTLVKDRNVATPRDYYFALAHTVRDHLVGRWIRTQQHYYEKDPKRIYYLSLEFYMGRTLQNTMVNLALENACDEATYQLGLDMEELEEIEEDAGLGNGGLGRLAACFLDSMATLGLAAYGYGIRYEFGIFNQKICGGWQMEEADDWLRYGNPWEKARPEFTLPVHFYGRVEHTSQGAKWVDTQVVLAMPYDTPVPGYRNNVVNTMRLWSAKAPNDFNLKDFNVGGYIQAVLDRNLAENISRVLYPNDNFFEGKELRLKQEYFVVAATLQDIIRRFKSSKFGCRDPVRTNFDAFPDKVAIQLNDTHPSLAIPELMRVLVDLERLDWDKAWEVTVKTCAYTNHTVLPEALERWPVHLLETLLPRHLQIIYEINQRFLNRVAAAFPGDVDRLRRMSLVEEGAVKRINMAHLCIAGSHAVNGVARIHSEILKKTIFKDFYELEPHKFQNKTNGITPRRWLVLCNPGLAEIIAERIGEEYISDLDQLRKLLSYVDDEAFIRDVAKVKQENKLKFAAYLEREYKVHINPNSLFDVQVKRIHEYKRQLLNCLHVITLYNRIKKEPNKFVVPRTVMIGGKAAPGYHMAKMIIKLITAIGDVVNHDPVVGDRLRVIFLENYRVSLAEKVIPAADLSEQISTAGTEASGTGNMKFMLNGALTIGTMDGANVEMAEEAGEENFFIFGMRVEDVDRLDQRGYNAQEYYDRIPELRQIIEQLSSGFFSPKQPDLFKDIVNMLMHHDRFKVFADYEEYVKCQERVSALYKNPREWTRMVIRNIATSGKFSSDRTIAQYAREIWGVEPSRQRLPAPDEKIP
`O=C1NC(=O)[C@]2(C[C@H](CO)[C@@H](O)[C@H](O)[C@H]2O)N1` [(6S,7S,8R,9R)-6,7,8-Trihydroxy-9-hydroxymethyl-1,3-diaza-spiro[4.5]decane-2,4-dione] had a Ki of 3000 nM. This lies in the single-digit micromolar range.

For the next test the target is unchanged. In words: Inhibition of Rabbit muscle glycogen phosphorylase B.
As for `CC(=O)c1cccc(C(=O)Nc2ccccc2Oc2ccc(C(=O)O)c(C(=O)O)c2)c1` [4-[2-(3-Acetyl-benzoylamino)-phenoxy]-phthalic acid], the IC50 was 50 µM. That is a double-digit micromolar value.
Consider `O=C(O)c1cccc(C(=O)Nc2ccccc2Oc2ccc(C(=O)O)c(C(=O)O)c2)c1` [4-[2-(3-Carboxy-benzoylamino)-phenoxy]-phthalic acid], for which the IC50 is greater than 200 µM.
Compound `COc1cccc(C(=O)Nc2ccccc2Oc2ccc(C(=O)O)c(C(=O)O)c2)c1` [4-[2-(3-Methoxy-benzoylamino)-phenoxy]-phthalic acid] registered an IC50 of 50 µM.

The target in another test is Glycogen phosphorylase, liver form (Sus scrofa). In words: In vitro inhibition of pig liver Glycogen phosphorylase A.
Regarding `O=C(Nc1ccccc1Oc1ccc(C(=O)O)c(C(=O)O)c1)c1ccccc1` [4-(2-Benzoylamino-phenoxy)-phthalic acid], the IC50 is greater than 200000 nM.
Compound `O=C(Nc1ccccc1Oc1ccc(C(=O)O)c(C(=O)O)c1)c1ccc(Cl)c(Cl)c1` [4-[2-(3,4-Dichloro-benzoylamino)-phenoxy]-phthalic acid] displayed an IC50 greater than 50000 nM.
Regarding `O=C(O)c1cccc(C(=O)Nc2ccccc2Oc2ccc(C(=O)O)c(C(=O)O)c2)c1` [4-[2-(3-Carboxy-benzoylamino)-phenoxy]-phthalic acid], the IC50 is greater than 100000 nM.
Take `O=C(Nc1cc(C(F)(F)F)ccc1Oc1ccc(C(=O)O)c(C(=O)O)c1)c1cccc([N+](=O)[O-])c1` [4-[2-(3-Nitro-benzoylamino)-4-trifluoromethyl-phenoxy]-phthalic acid]: the IC50 is 1800 nM.
The compound `O=C(Nc1ccccc1Oc1ccc(C(=O)O)c(C(=O)O)c1)c1ccc(Cl)cc1` [4-[2-(4-Chloro-benzoylamino)-phenoxy]-phthalic acid] returned an IC50 greater than 200000 nM.
In the case of `Cc1ccc(C(=O)Nc2ccccc2Oc2ccc(C(=O)O)c(C(=O)O)c2)cc1` [4-[2-(4-Methyl-benzoylamino)-phenoxy]-phthalic acid], the IC50 is greater than 30000 nM.
As for `CC(=O)Nc1ccc(Oc2ccc(C(=O)O)c(C(=O)O)c2)c(NC(=O)c2cccc([N+](=O)[O-])c2)c1` [4-[4-Acetylamino-2-(3-nitro-benzoylamino)-phenoxy]-phthalic acid], 140 nM corresponded to half-maximal inhibition (IC50). This counts as sub-micromolar.
Consider `O=C(Nc1ccc(Oc2ccc(C(=O)O)c(C(=O)O)c2)c(NC(=O)c2cccc([N+](=O)[O-])c2)c1)c1ccccc1` [4-[4-Benzoylamino-2-(3-nitro-benzoylamino)-phenoxy]-phthalic acid], for which the IC50 was 120 nM.
Same read-out and setting: with `O=C(Nc1cc(Br)ccc1Oc1ccc(C(=O)O)c(C(=O)O)c1)c1cccc([N+](=O)[O-])c1` [4-[4-Bromo-2-(3-nitro-benzoylamino)-phenoxy]-phthalic acid] the figure was 250 nM; with `N#Cc1ccc(Oc2ccc(C(=O)O)c(C(=O)O)c2)c(NC(=O)c2cccc([N+](=O)[O-])c2)c1` [4-[4-Cyano-2-(3-nitro-benzoylamino)-phenoxy]-phthalic acid], 2200 nM.
For the compound `O=C(Nc1cc(F)ccc1Oc1ccc(C(=O)O)c(C(=O)O)c1)c1cccc([N+](=O)[O-])c1` [4-[4-Fluoro-2-(3-nitro-benzoylamino)-phenoxy]-phthalic acid], the IC50 came to 2500 nM.
`Cc1ccc(Oc2ccc(C(=O)O)c(C(=O)O)c2)c(NC(=O)c2cccc([N+](=O)[O-])c2)c1` [4-[4-Methyl-2-(3-nitro-benzoylamino)-phenoxy]-phthalic acid] had an IC50 of 450 nM.
`Cc1cc(Oc2ccc(C(=O)O)c(C(=O)O)c2)c(NC(=O)c2cccc([N+](=O)[O-])c2)cc1NC(=O)c1cccc([N+](=O)[O-])c1` [4-[5-Methyl-2,4-bis-(3-nitro-benzoylamino)-phenoxy]-phthalic acid] showed an IC50 of 700 nM.
